Measured values published in patent EP0358177A1, “Medicine with a synergistic antimycosic and antiviral activity” (HOECHST AKTIENGESELLSCHAFT, priority 1988, dated 1990).
≈ marks a conversion by molar mass, not a printed value. Where two headings read alike, the source gives them in different places.

Legend:
Type in all cases: cell-based
C. albicans = experiment: Minimal inhibitory concentration (MHK), microdilution test in Neopepton Dextrose Bouillon; conditions: Candida albicans, read-out: MHK
Text: (§1) Die minimale Hemmkonzentration (MHK), das heißt, diejenige Konzentration bei der das Wachstum der Pilze noch makroskopisch sichtbar gehemmt ist, wurde im Mitrkoverdünnungstest (Mikrodilutiontest in Neopepton Dextrose Boullion, siehe: "Comparison of two different techniques in primary micrological screening": Standard serial dilution test and microtitration test; W. Raether, M. Uphoff und G. Staut, mycosen, 27 (1984), p. 15 - 28) geprüft. Das Inokulum pro Weil betrug bei Candida albicans 10^3 cfu/ml und bei Microsporum canis 1,6 10^5 cfu/ml (cfu = colony forming units).
(§2) Zunächst wurde die minimale Hemmkonzentration eines jeden Kombinationspartners (Ciclopiroxolamin bzw. Nigericin oder Nigericinderivat) allein festgestellt (Cyclopyoxolamin: 2 u.g/ml; Nigericin und alle Nigericinderivate: >128 u.g/ml). Anschließend wurde die MHK für Ciclopiroxolamin in Anwesenheit von jeweils 64 µg/ml, 16 u.g/ml und 1 µg/ml eines Nigericinderivats geprüft, um festzustellen inwieweit der Zusatz des Nigericinderivats die Wirkung von Ciclopiroxolamin verstärken konnte.

M. canis = experiment: as above; conditions: Microsporum canis, read-out: MHK
Text: as §1, §2

[1] = test system: Microsporum Canis und Candida albicans; experiment: Minimal inhibitory concentration (MHK), microdilution test, text statements not separated by test strain; conditions: each combination partner alone; test strain not specified; read-out: minimale Hemmkonzentration eines jeden Kombinationspartners allein
Text: as §1, §2

Row | Compound | MIC (C. albicans) [µg/mL] | MIC (M. canis) [µg/mL] | MIC (C. albicans; C. albicans, substance alone) [µg/mL] | MIC (M. canis; M. canis, substance alone) [µg/mL] | MIC [1] [µg/mL]
1 | COC1CC(CC2CCC(C)C(C(C)C(=O)O)O2)OC2(OC(C)(C3CCC(C)(C4OC(C5OC(O)(COC(=O)CCC(=O)O)C(C)CC5C)CC4C)O3)CC2C)C1C (stereo not shown) [Beispiel 17] | 128 (≈ 155 µM) | 128 (≈ 155 µM) |  |  | 
2 | COC1CC(CC2CCC(C)C(C(C)C(=O)O)O2)OC2(OC(C)(C3CCC(C)(C4OC(C5OC(O)(COC(=O)Cc6ccccc6)C(C)CC5C)CC4C)O3)CC2C)C1C (stereo not shown) [Beispiel 19] |  |  | 128 (≈ 152 µM) | 128 (≈ 152 µM) | 
3 | Cc1cc(C2CCCCC2)n(O)c(=O)c1 [Ciclopiroxolamin, Ethanolamin des 6-Cyclohexyl-1-Hydroxy-4-methyl-2(1H)-Pyridons, reference compound] |  |  | 2 (≈ 9.65 µM) | 2 (≈ 9.65 µM) | 2
4 | COC1CC(CC2CCC(C)C(C(C)C(=O)O)O2)OC2(OC(C)(C3CCC(C)(C4OC(C5OC(O)(COC(=O)CCOc6ccccc6)C(C)CC5C)CC4C)O3)CC2C)C1C (stereo not shown) [Beispiel 20] | 128 (≈ 147 µM) | 128 (≈ 147 µM) |  |  | 
5 | CO[C@@H]1C[C@@H](C[C@H]2CC[C@H](C)[C@H]([C@@H](C)C(=O)O)O2)O[C@]2(O[C@](C)([C@H]3CC[C@@](C)([C@@H]4O[C@@H]([C@H]5O[C@@](O)(CO)[C@H](C)C[C@@H]5C)C[C@@H]4C)O3)C[C@H]2C)[C@@H]1C [Nigericin, reference compound] |  |  | 128 (≈ 177 µM) | 128 (≈ 177 µM) | 
6 | COC1CC(CC2CCC(C)C(C(C)C(=O)O)O2)OC2(OC(C)(C3CCC(C)(C4OC(C5OC(O)(COC(=O)c6ccccc6)C(C)CC5C)CC4C)O3)CC2C)C1C (stereo not shown) [Beispiel 18] | 128 (≈ 154 µM) | 128 (≈ 154 µM) |  |  | 
